One data set relates to miR-21. The experiment in a line: miR-21 luciferase sensor assay in Hela cells. The class given is cell-based. The method, then:
The compounds were assessed for miR-21 inhibitory activity in a luciferase assay. A microRNA luciferase sensor construct was engineered using pGL3-MCS2 (Promega). The construct was introduced into Hela cells to test the ability of anti-miR compounds to inhibit activity of miR-21. In this assay, miR-21 present in the Hela cells binds to its cognate site(s) in the luciferase sensor construct, and suppresses luciferase expression. When the appropriate anti-miR is introduced into the cells, it binds to miR-21 and relieves suppression of luciferase expression. Thus, in this assay anti-miRs that are effective inhibitors of miR-21 expression will cause an increase in luciferase expression.
Day 1: Hela cells (ATCC), stably transfected with a luciferase construct engineered to contain a sequence complementary of miR-21, were seeded in T-170 flasks (BD Falcon) at 3.5*10^6 cells/flask. Hela cells were grown in Dulbecco's Modified Eagle Medium with High Glucose (Invitrogen).
Day 2: Each flask of Hela cells was transfected with 0.5 ug of a phRL sensor plasmid (Promega) expressing Renilla to be used in normalization. Hela cells were transfected using 20 ul Lipofectamine 2000/flask (Invitrogen). After 4 hours of transfection, cells were washed with PBS and trypsinized. Hela cells were plated at 40 k/well in 24 well plates (BD Falcon) and left overnight.
Day 3: Hela cells were transfected with anti-miRs using Lipofectin (Invitrogen) at 2.5 ul Lipofectin/100 nM ASO/ml Opti-MEM I Reduced Serum Medium (Invitrogen) for 4 hours. After ASO transfection, Hela cells were refed with Dulbecco's Modified Eagle Medium with High Glucose (Invitrogen).
Day 4: Hela cells are passively lysed and luciferase activity measured using the Dual-Luciferase Reporter Assay System (Promega).
The luciferase assay was performed to test the ability of anti-miRs with the nucleoside patterns described herein to inhibit the activity of miR-21. Results were compared to a ‘mock’ treatment, in which cells received no anti-miR treatment. The experiment was repeated and results of two experimental replicates are shown in the following Table B, as the luciferase value normalized to beta-galactosidase activity.
The luciferase assay was performed as described herein to test the ability of anti-miRs in Table F to inhibit the activity of miR-21. Results were compared to a ‘mock’ treatment, in which cells received no anti-miR treatment. The experiment was repeated and results of two experimental replicates are shown in the following Table D, as fold change in luciferase value relative to the mock treatment.

Data set [1] relates to collagen 1A1 and collagen 3A1 expression in kidney, unilateral ureteral obstruction (UUO) model. Kind of data set: UUO model of kidney fibrosis: kidney collagen 1A1 and collagen 3A1 expression by real-time PCR. The class given is in vivo, mice. Particulars: UUO; 20 mg/kg at days -5, -3, +3; kidney at day 10. The method, then: Unilateral ureteral obstruction (UUO) is a well-established experimental model of renal injury leading to interstitial fibrosis, and thus is used as an experimental model that is reflective of human kidney disease. UUO is induced by surgically ligating a single ureter. As fibrosis is characterized by an increase in collagen, the presence and extent of kidney fibrosis may be determined by measuring collagen content. Both collagen 1A1 (Col 1A1) and collagen 3A1 (Col 3A1) are measured to assess collagen content. Kidney fibrosis may be visualized by staining tissue samples with picro-sirius red to detect increases in collagen content. Kidney fibrosis may also be observed by measuring the amount of hydroxyproline, which is a major component of collagen, in a sample.
The cEt-containing anti-miR-21 compounds found to be active in the luciferase assay were tested in the UUO model of kidney fibrosis. 25919 comprising 2′-MOE and 2′-fluoro modifications is known to inhibit miR-21 activity in vivo and was included as a positive control. Groups of 8 animals each were treated as follows: UUO only, UUO with PBS, or UUO with anti-miR-21 compound. Relative to the day of the UUO procedure, PBS or anti-miR-21 compound was administered at days −3, −1, and +5. Anti-miR-21 compounds were administered at a dose of 20 mg/kg. As the anti-miR compounds were administered prior to the UUO procedure, this dosing regimen is considered a prophylactic treatment. At day 11, animals were sacrificed and kidney was isolated for measurement of collagen expression. Collagen expression was measured by real-time PCR and normalized first to GAPDH and then to the sham control animals. […]
For orientation: Real-time PCR tracks product formation cycle by cycle.

Data set [2] relates to ischemia reperfusion injury/nephrectomy (IR/Nx) model. Kind of data set: Ischemia reperfusion injury/nephrectomy (IR/Nx) model: urinary albumin to creatinine ratio. It counts as in vivo, mouse. Particulars: for geometric mean of the urinary albumin to creatinine ratio: s.c. 20 mg/kg on days 2, 3, 4, 8, urine day 9, PBS control 127, nephrectomy-only 16. The text has this:
An ischemia reperfusion injury/nephrectomy (IR/Nx) model is created in the mouse through temporary unilateral clamping of an artery in one kidney, which leads to tubule damage, inflammation, and fibrosis, followed by removal of the second kidney at a later timepoint. In this model, the acute kidney dysfunction phase is useful to test candidate agents for the treatment of acute kidney injury (i.e. up to about the first 5 days), and the later phases of kidney dysfunction are useful to model chronic fibrosis (i.e. after about the first 5 days).
Anti-miR-21 compounds were tested in the IR/Nx model. 25109, a 6-base mismatch to miR-21, was used as a control compound ([…]; where nucleosides not followed by a subscript indicate β-deoxynucleosides; nucleosides followed by a subscript “E” indicate 2′-MOE nucleosides; nucleosides followed by a subscript “S” indicate S-cEt nucleosides; and all internucleoside linkages are phosphorothioate internucleoside linkages).
Unilateral IR was induced for a period of 30 minutes. Treatment groups were as follows: sham IR procedure; IR with PBS administered subcutaneously; IR with mismatched control 25109 administered subcutaneously at a dose of 20 mg/kg; IR with anti-miR-21 compound 25070 administered subcutaneously at a dose of 20 mg/kg; and IR with anti-miR-21 compound 25923 administered subcutaneously at a dose of 20 mg/kg. PBS or anti-miR was administered on days 2, 3, 4, and 8 following IR. On day 8, the healthy kidney was removed by nephrectomy from each animal, and animals were sacrificed on day 9. Just prior to sacrifice, urine was collected by direct bladder puncture.
Urinary albumin to creatinine ratio was measured in the urine from each mouse. […] The geometric mean of the albumin to creatinine ratio in each group of mice was 16 μgAlb/mgCr (nephrectomy-only control), 127 μgAlb/mgCr (IR/Nx, PBS control), 140 μgAlb/mgCr (IR/Nx, 25109 control), 40 μgAlb/mgCr (IR/Nx, 25070), and 31 μgAlb/mgCr (IR/Nx, 25923). Blood urea nitrogen and serum creatinine levels were similar across all IR/Nx mice, and were elevated relative to nephrectomy-only control mice (data not shown).

Data set [3] in a line: Ex vivo liver homogenate stability assay (HPLC-TOF MS). As to conditions: 24 hours, 37° C.; for ex vivo (liver) N %↓: 5 μM oligonucleotide in liver homogenate (50 mg tissue per ml), decrease of full-length compound; for ex vivo (liver) % N-1 / ex vivo (liver) % Endo: 5 μM oligonucleotide in liver homogenate; for ex vivo (liver) % N-1: compound lacking one terminal nucleoside; for ex vivo (liver) % Endo: endonuclease products.

Data set [4] can be described thus: In vivo stability: compound in kidney tissue after administration to mice. Particulars: kidney tissue after administration to mice; for in vivo (kidney) N-1(%): compound lacking one terminal nucleoside; for in vivo (kidney) N(%): full-length compound.

Results on 4 sequences are retold here after patent US9790496B2, “Microrna compounds and methods for modulating MIR-21 activity” (Regulus Therapeutics, Inc., priority 2011, dated 2017).

For “AECSATCSAGTCSTGAUSAAGCSTAS (ACATCAGTCTGATAAGCTA; modified nucleosides coded in name, code key not given here) [Compound 25923, 25070 variant: 3'-terminal nucleoside is a cEt nucleoside rather than 2'-MOE nucleoside]”, in the data set on miR-21 (Hela cells), the “inhibition of miR-21 in the luciferase assay (in words)” value was “demonstrated inhibition of miR-21 in a dose-dependent manner”. The “fold change in luciferase value relative to the mock treatment” value in the data set with miR-21 (concentration of anti-miR compound 0.2 (unit not given)) is reported as 1.06; in the data set on miR-21 (concentration of anti-miR compound 0.6 (unit not given)), 1.01; in the data set with miR-21 (concentration of anti-miR compound 1.9 (unit not given)), 1.10; in the data set with miR-21 (concentration of anti-miR compound 5.6 (unit not given)), 5.18; with miR-21 (concentration of anti-miR compound 16.7 (unit not given)) it was 11.34; in the data set with miR-21 (concentration of anti-miR compound 50.0 (unit not given)), 10.81. The “reduction of collagen 1A1 expression (in words, FIG. 2A)” value (“reduction of collagen 1A1 expression” for short) in data set [1] is “reduced collagen 1A1 and collagen 3A1 expression by a statistically significant amount”. Moreover, in data set [1], the “reduction of collagen 3A1 expression (in words, FIG. 2B)” value (“reduction of collagen 3A1 expression” for short) is “reduced collagen 1A1 and collagen 3A1 expression by a statistically significant amount”. The “reduction in urinary albumin to creatinine ratio (in words)” value in data set [2] (s.c. 20 mg/kg on days 2, 3, 4, 8) is on record as “statistically significant reductions”. Also, the “geometric mean of the urinary albumin to creatinine ratio” value in data set [2] came to 31 μgAlb/mgCr.
For “AEASATCSTGTCSTCAUSAATASAAE [Compound 25109, reference compound]”, the “geometric mean of the urinary albumin to creatinine ratio” value in data set [2] is reported as 140 μgAlb/mgCr.
On to “AECSATCSAGTCSTGAUSAAGCSUSAS (ACATCAGTCTGATAAGCTA; modified nucleosides coded in name, code key not given here) [Compound 25221]”, for which, in data set [1], the “reduction of collagen 1A1 expression” value was “reduced collagen 1A1 and collagen 3A1 expression by a statistically significant amount”; the “reduction of collagen 3A1 expression” value was “reduced collagen 1A1 and collagen 3A1 expression by a statistically significant amount”. Further, in data set [3], the “ex vivo (liver) N %↓” value was determined as 3%, the “ex vivo (liver) % N-1” value was 0% and the “ex vivo (liver) % Endo” value was 3%. In addition, in data set [4], the “in vivo (kidney) N-1(%)” value amounted to 4 ± 1% and the “in vivo (kidney) N(%)” value amounted to 76 ± 4%.
In the case of “AECSATCSASGTCSUSGAUSASAGCSUSAE (ACATCAGTCTGATAAGCTA; modified nucleosides coded in name, code key not given here) [Compound 25220]”, in data set [1], the “reduction of collagen 1A1 expression” value was “reduced collagen 1A1 and collagen 3A1 expression by a statistically significant amount”; the “reduction of collagen 3A1 expression” value was “reduced collagen 1A1 and collagen 3A1 expression by a statistically significant amount”. In data set [3], the “ex vivo (liver) N %↓” value worked out at 3%, the “ex vivo (liver) % N-1” value is given as 0% and the “ex vivo (liver) % Endo” value turned out to be 3%. In data set [4], the “in vivo (kidney) N-1(%)” value amounted to 16 ± 6% and the “in vivo (kidney) N(%)” value is reported as 67 ± 16%.
